Test results taken from publication PMC5064022, “KCNE1 induces fenestration in the Kv7.1/KCNE1 channel complex that allows for highly specific pharmacological targeting” (Nature Communications, 2016).

Legend:
Type in all cases: cell-based
Kv7.1/KCNE1 [1] = biological target: T1, Kv7.1/KCNE1 (Homo sapiens, UniProt P15382+P51787); test: Two electrode voltage clamp of Kv7.1/KCNE1 currents in Xenopus oocytes; conditions: 10 µM; percent change in current amplitude at end of pulse to +40 mV
Protocol: Template cDNAs (wildtype or mutant human Kv7.1 in pSGEM, wildtype human KCNE1 in pSP64) were linearized with a suitable restriction enzyme (Nhe I/pSGEM, Eco RI/pSP64). cRNA was synthesized from 1 μg linearized cDNA by in vitro transcription (mMessage mMachine T7 or SP6 kit, Ambion, Life Technologies Darmstadt, Germany). cRNA concentrations were determined by photometry (Nanodrop, Peqlab, Erlangen, Germany) and cRNA quality was checked by agarose gel electrophoresis.
Oocytes were commercially obtained from EcoCyte Bioscience (Castrop-Rauxel, Germany). Injection of stage 4 or 5 oocytes was performed using a nanoliter injector 2000 (WPI, Berlin, Germany). For standard pharmacological measurements, each oocyte was injected with 5 ng Kv7.1 cRNA alone or with 1 ng KCNE1 cRNA. To investigate the influence of KCNE1 on AC-1 sensitivity of Kv7.1 tetramers, 5 ng Kv7.1 cRNA was injected with different amounts of KCNE1 cRNA (0 ng, 0.005 ng, 0.05 ng, 0.5 ng and 5 ng). Injected oocytes were maintained in an incubator at 17 °C for 4–5 days in standard Barth solution (EcoCyte Bioscience, Castrop-Rauxel, Germany) supplemented with 90 μg ml^−1 theophylline, 63 μg ml^−1 penicillin, 40 μg ml^−1 streptomycin, and 100 μg ml^−1 gentamycin until used for two electrode voltage clamp (TEVC) measurements.
TEVC measurements were performed using a TurboTec-10CD amplifier (npi Electronic, Tamm, Germany) and an ITC-16 AD/DA-interface (Instrutech Corporation, Port Washington, New York, USA). Pulse and PulseFit software (HEKA, Lambrecht/Pfalz, Germany) was used for data acquisition and analysis. During TEVC recordings, oocytes were constantly perfused with control solution (ND96, containing in mM: 96 NaCl, 4 KCl, 1.8 CaCl2, 1 MgCl2, 5 mM HEPES, pH 7.6 supplemented 0.1–0.3% DMSO). AC solutions were freshly prepared in ND96 from a 10 mM DMSO stock solution. Glass capillaries were pulled to a fine point to produce current and voltage electrodes that were back-filled with 3 M KCl. When filled with this solution, electrode resistances ranged from 0.5–1.5 MΩ. Different voltage pulse protocols were used as follows: (1) To study the inhibitory effect of different AC derivatives, Kv7.1/KCNE1 currents were elicited by repetitive 7 s pulses to +40 mV applied every 30 s from a holding potential of −80 mV. (2) To analyse the voltage dependence of channel activation, currents were elicited by 10 s pulses to test voltages between −100 and +60 mV, applied in 20 mV increments from a holding potential of −80 mV. Tail currents were recorded at −120 mV. For control we always expressed KCNE1 alone along mutant channels and mutant currents were only taken into account when it reached at least 2.5- to 3-fold the size of the background Xenopus-Kv7.1/hKCNE1 currents.
Electrophysiological data were analysed using PulseFit software (HEKA, Lambrecht/Pfalz, Germany) and GraphPad Prism (GraphPad Software, Inc., La Jolla, California, USA). Channel inhibition was determined as reduction of whole cell current amplitude at the end of a 7 s test pulse to +40 mV. The concentration of compound that caused half-maximal inhibition (IC50) were determined using the Hill equation: Idrug/Imax=1/(1+[C/IC50]^H), where Idrug is the current amplitude in the presence of the drug, Imax is the current amplitude before drug application, C is the drug concentration and H is the Hill coefficient.

Kv7.1/KCNE1 [2] = biological target: T1, Kv7.1/KCNE1; test: Current inhibition in CHO cells stably expressing Kv7.1/KCNE1
Protocol: Figure 5 PAL-based approach to identify AC binding site. (a) Schematic view of the PAL-based approach to investigate the binding site of AC-1. (b) Concentration-response curve for AC-10, the UV-active diazirine derivate of AC-1. The inhibitory effect of AC-10 was determined in CHO cells stably expressing Kv7.1/KCNE1. Inhibition was determined as percent change in current amplitude at the end of the depolarizing test pulse to +40 mV (±s.e.m.). (c) A new cDNA-construct (Kv7.1myc-2A-KCNE1myc in pXOOM) allows for functional expression of myc-tagged Kv7.1 and KCNE1 in HEK293T cells. In this construct, cDNAs of Kv7.1 and KCNE1 are linked via the T2A peptide sequence, which mediates co-translational protein cleavage. (d) Western blot analysis of affinity purified Kv7.1 and KCNE1 proteins. Kv7.1myc was purified using myc-agarose beads KCNE1 was purified using anti-KCNE1 coupled protein-A-sepharose beads (right). In both western blots, ‘+' indicates transfected cells, ‘−' indicates non-transfected control cells. Antibodies used for affinity purification are detected in ‘+' and ‘−'. […] It should be noted, that KCNE1, as a myc-tagged protein, should also be purified using the myc-agarose beads. […] Thus, KCNE1 expression was instead proven using the KCNE1 antibody. (e) Functional expression of Kv7.1myc-2A-KCNE1myc in HEK293T cells (scale bars indicate 1 nA, 1 s).

homomeric Kv7.1 channels = test: AC-10 on homomeric Kv7.1 channels
Kv7.1/KCNE1 channels = test: Reversibility of AC-10 current inhibition by washout, with or without UV irradiation

| inhibition at 10 µM (Kv7.1/KCNE1 [1]) | Structure (SMILES) | further results |
| --- | --- | --- |
| 73.7 ± 2.9% | CC(C)(Oc1cccc(C(F)(F)F)c1)C(=O)NC1C2CC3CC1CC(NS(C)(=O)=O)(C3)C2 (stereo not shown) [AC-3] | – |
| 78.6 ± 3.3% | Cc1cc(Cl)ccc1OC(C)(C)C(=O)NC1C2CC3CC1CC(NC(=O)CC(C)C)(C3)C2 (stereo not shown) [AC-9] | – |
| 64.6 ± 6.6% | Cc1cc(Cl)ccc1OC(C)(C)C(=O)NC1C2CC3CC1CC(C(=O)O)(C3)C2 (stereo not shown) [AC-6] | – |
| 38 ± 4.4% | Cc1cc(Cl)ccc1OC(C)(C)C(=O)NC1C2CC3CC1CC(NS(=O)(=O)N(C)C)(C3)C2 (stereo not shown) [AC-7] | – |
| 74.5 ± 6.2% | CCOC(=O)NC12CC3CC(C1)C(NC(=O)C(C)(C)Oc1ccc(Cl)cc1C)C(C3)C2 (stereo not shown) [AC-8] | – |
| 4.2 ± 6.1% | Cc1cc(Cl)ccc1OC(C)(C)C(=O)NC1[C@@H]2CC3C[C@H]1CC(N)(C3)C2 (stereo partly shown) [AC-4, N-[(1 R,3 S)-5-amino-2-adamantyl]-2-(4-chloro-2-methyl-phenoxy)-2-methyl-propanamide] | – |
| 40.9 ± 1.4% | Cc1cc(Cl)ccc1OC(C)(C)C(=O)NC1C2CC3CC1CC(O)(C3)C2 (stereo not shown) [AC-5] | – |
| – | Cc1cc(Cl)ccc1OC(C)(C)C(=O)NC1[C@@H]2CC3C[C@H]1CC(NC(=O)CCC1(C)N=N1)(C3)C2 (stereo partly shown) [AC-10, 2-(4-chloro-2-methyl-phenoxy)-2-methyl-N-[(1 R,3 S)-5-[3-(3-methyldiazirin-3-yl)propanoylamino]-2-adamantyl]propanamide] | Hill-coeff. (Kv7.1/KCNE1 [2]): 1.7; IC50 (Kv7.1/KCNE1 [2]; +40 mV): 16 nM; inhibition of homomeric Kv7.1 channels (homomeric Kv7.1 channels): did not inhibit; inhibition after 38 min washout (Kv7.1/KCNE1 channels; after UV irradiation): 75%; inhibition after 38 min washout (Kv7.1/KCNE1 channels; non UV-activated): 40% |
| 86.8 ± 3% | Cc1cc(Cl)ccc1OC(C)(C)C(=O)NC1C2CC3CC1CC(NS(C)(=O)=O)(C3)C2 (stereo not shown) [AC-2] | – |
